Patent US8796470B2 (AbbVie Inc., priority 2010, dated 2014)

Target: T1, human Cav2.2 (Homo sapiens, UniProt Q00975)
T1 construct: IMR32 cells endogenously expressing human Cav2.2; endogenous in cells; host or cells: IMR32 cells (human neuroblastoma)
Test: Assessment of calcium channel activity using FLIPR (Ca2+ influx in IMR32 cells)
Assay type: cell-based
Conditions: IMR32 cells endogenously expressing human Cav2.2, Calcium 4 dye, 60 minute pre-incubation, 2 μM nifedipine, depolarized with 80 mM KCl, 5 mM CaCl2
Description: (i) In Vitro Methods—Assessment of Calcium Channel Activity Using FLIPR:
IMR32 cells endogenously expressing human Cav2.2 were assayed for Ca^2+ influx using a no-wash calcium indicator dye (Calcium 4 dye: Molecular Probes) and FLIPR technology (Lubin, M. L.; Reitz, T. L.; Todd, M. J.; Flores, C. M.; Qin, N.; Xin, H. Assay and Drug Development Technologies 2006, 4(6), 689-694.). The IMR32 cells were maintained in MEM media containing 10% (v/v) FBS, 1% (v/v) antibiotic/antimitotic, 1% (v/v) sodium pyruvate and 1% (v/v) MEM NEAA. Following dissociation in 0.05% (v/v) trypsin/EDTA, cells were seeded into black 1×96-well plates (Corning Cellbind) at a density of 1−1.2×10^5 cells/well and incubated in the maintenance media above for 48 hours at 37° C. Immediately prior to performing the assay the media was removed and cells were loaded for 1.5 hours with 1×Calcium 4 dye prepared in HBSS (137 mM NaCl, 5.4 mM KCl, 0.25 mM Na2HPO4, 0.44 mM KH2PO4, 1.3 mM CaCl2, 1 mM MgSO4, 4.2 mM NaHCO3) containing HEPES pH 7.4 at room temperature. After dye loading and a subsequent 60 minute pre-incubation with compounds (full log dilutions from 10 μM to 0.1 nM) in the presence of 1.3 mM CaCl2 and 2 μM nifedipine to block endogenous L-type channels, the external Ca^2+ concentration was increased to 5 mM CaCl2 and the cells concomitantly depolarized with 80 mM KCl to assay channel activity. To determine the IC50 values, the percent inhibition of the compound at each concentration was determined relative to the activity in the absence of inhibitor, and data was fitted using non-linear regression sigmoidal dose response curve analysis with GraphPad Prism®.

T1 sequence (Q00975 whole entry): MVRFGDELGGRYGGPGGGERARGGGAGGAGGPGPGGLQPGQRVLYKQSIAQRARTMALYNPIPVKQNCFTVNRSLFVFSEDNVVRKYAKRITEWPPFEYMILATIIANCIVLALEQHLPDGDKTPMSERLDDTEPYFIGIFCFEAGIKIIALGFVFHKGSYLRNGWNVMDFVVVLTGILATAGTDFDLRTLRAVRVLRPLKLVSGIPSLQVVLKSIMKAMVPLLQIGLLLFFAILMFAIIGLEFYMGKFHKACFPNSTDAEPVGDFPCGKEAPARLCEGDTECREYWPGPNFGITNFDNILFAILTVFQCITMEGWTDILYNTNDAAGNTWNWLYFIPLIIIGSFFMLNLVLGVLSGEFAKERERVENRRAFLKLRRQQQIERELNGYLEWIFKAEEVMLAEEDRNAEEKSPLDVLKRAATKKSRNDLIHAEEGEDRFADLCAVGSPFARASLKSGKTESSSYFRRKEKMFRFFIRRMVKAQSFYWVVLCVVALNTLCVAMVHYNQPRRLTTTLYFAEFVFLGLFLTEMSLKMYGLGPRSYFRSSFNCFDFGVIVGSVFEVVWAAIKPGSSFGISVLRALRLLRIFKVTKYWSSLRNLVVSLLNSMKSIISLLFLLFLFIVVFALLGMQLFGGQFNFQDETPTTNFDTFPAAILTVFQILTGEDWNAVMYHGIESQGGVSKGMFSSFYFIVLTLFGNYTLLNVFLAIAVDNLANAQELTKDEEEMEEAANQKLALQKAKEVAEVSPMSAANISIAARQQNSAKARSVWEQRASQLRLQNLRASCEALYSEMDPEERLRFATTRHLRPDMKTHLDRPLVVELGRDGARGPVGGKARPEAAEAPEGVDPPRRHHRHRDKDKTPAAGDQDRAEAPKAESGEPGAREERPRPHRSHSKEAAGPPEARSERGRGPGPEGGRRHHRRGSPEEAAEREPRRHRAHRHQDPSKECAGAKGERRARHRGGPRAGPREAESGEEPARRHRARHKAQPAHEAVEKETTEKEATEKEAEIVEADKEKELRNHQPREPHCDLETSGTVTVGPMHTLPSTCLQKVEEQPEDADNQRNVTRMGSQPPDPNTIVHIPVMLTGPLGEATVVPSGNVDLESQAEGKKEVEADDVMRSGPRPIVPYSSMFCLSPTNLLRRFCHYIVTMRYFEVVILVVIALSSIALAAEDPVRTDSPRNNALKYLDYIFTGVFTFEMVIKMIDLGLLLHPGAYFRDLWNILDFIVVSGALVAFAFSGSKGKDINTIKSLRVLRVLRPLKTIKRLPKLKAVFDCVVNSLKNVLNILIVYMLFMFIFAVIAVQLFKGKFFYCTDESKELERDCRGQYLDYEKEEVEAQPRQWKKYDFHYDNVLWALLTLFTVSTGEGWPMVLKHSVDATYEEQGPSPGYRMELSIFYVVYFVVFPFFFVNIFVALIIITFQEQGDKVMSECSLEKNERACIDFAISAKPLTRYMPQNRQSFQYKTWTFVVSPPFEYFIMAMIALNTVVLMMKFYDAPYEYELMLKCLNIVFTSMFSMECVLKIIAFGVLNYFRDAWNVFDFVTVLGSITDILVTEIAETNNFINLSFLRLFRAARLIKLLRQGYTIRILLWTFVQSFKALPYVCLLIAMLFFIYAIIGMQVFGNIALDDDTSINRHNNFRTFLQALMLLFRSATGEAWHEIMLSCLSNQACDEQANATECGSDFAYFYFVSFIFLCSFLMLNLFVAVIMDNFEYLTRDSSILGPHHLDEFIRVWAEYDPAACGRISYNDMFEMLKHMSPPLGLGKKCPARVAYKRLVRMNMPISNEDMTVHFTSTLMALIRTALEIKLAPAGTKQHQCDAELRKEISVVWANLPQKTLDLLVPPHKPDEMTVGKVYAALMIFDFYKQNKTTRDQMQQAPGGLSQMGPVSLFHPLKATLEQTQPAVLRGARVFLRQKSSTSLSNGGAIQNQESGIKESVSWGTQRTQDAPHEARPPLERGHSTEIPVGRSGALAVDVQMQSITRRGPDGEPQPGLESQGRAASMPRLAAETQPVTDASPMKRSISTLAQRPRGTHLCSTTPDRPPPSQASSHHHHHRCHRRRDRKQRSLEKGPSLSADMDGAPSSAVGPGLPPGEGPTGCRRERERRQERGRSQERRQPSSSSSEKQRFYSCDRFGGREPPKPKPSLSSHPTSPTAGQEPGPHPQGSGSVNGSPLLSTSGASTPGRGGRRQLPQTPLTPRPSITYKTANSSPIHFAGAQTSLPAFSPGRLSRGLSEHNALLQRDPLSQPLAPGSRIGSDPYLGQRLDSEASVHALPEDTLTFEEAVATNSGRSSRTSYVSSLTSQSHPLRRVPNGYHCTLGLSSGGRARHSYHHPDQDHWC
T1 sequence (P54289 25-956 partner limits assumed): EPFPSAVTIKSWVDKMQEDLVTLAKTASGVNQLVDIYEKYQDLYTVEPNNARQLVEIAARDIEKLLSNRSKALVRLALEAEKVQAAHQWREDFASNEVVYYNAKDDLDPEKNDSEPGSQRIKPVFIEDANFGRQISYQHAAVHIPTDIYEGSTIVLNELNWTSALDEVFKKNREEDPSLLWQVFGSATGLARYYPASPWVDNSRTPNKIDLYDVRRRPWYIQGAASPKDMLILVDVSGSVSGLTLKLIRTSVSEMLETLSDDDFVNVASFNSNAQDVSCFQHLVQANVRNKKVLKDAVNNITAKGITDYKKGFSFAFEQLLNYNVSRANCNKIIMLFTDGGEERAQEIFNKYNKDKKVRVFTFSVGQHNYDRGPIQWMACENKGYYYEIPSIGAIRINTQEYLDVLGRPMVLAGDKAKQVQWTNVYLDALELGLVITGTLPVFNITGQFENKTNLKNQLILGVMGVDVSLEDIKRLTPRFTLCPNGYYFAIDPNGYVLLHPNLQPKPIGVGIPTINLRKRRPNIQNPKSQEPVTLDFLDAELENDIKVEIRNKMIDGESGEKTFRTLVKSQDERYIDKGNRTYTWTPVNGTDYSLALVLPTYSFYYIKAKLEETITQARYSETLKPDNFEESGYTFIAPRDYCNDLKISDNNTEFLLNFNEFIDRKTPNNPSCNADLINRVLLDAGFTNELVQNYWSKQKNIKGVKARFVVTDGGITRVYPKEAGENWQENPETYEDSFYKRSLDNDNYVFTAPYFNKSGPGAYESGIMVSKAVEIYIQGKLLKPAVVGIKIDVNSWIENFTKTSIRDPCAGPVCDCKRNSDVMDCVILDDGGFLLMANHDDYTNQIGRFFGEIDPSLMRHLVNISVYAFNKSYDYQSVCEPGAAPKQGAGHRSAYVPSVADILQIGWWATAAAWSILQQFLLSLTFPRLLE
T1 sequence (P54289 957-1103 partner limits assumed): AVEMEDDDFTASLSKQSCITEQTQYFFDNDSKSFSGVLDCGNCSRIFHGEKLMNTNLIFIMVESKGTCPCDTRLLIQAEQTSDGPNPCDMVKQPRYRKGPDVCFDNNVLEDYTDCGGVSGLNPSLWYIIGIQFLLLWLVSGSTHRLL
T1 sequence (P54284 whole entry partner): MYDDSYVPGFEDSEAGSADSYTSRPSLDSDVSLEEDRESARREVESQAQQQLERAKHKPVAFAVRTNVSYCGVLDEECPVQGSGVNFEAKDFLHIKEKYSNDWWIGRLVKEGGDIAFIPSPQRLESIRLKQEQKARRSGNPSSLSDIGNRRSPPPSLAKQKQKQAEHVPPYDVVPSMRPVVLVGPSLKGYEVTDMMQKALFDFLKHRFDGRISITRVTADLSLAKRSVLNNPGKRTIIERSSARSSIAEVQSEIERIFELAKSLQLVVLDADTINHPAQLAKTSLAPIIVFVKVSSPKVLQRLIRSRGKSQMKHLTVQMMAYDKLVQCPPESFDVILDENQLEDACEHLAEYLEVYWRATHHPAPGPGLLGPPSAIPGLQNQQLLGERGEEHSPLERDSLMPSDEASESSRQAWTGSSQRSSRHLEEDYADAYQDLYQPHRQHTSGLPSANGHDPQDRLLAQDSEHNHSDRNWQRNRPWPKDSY

| Compound | IC50 [µM] |
| --- | --- |
| O[C@H]1[C@H]2CN(c3cccc(C(F)(F)F)n3)C[C@H]2C[C@H]1n1ccnc1 [Example 68, (3aR,4S,5R,6aS)-5-(1H-imidazol-1-yl)-2-[6-(trifluoromethyl)pyridin-2-yl]octahydrocyclopenta[c]pyrrol-4-ol] | 10.8 |
| O[C@H]1[C@H]2CN(c3cccc(C(F)(F)F)n3)C[C@H]2C[C@@H]1n1ccnc1 [Example 69, (3aR,4S,5S,6aS)-5-(1H-imidazol-1-yl)-2-[6-(trifluoromethyl)pyridin-2-yl]octahydrocyclopenta[c]pyrrol-4-ol] | 9.15 |
| C[C@]1(NC(=O)[C@@H]2C[C@@H](F)CN2)CC[C@@H]2CN(c3cccc(C(F)(F)F)n3)C[C@@H]21 [Example 70, (4R)-4-fluoro-N-{(3aR,4S,6aS)-4-methyl-2-[6-(trifluoromethyl)pyridin-2-yl]octahydrocyclopenta[c]pyrrol-4-yl}-L-prolinamide] | 3.09 |
| CN[C@@H](CC(C)C)C(=O)N[C@@]1(C)CC[C@@H]2CN(c3cccc(C(F)(F)F)n3)C[C@@H]21 [Example 71, N^2-methyl-N-{(3aR,4S,6aS)-4-methyl-2-[6-(trifluoromethyl)pyridin-2-yl]octahydrocyclopenta[c]pyrrol-4-yl}-L-leucinamide] | 0.78 |
| C[C@]1(NC(=O)CCC(F)(F)F)CC[C@@H]2CN(c3cccc(C(F)(F)F)n3)C[C@@H]21 [Example 72, 4,4,4-trifluoro-N-{(3aR,4S,6aS)-4-methyl-2-[6-(trifluoromethyl)pyridin-2-yl]octahydrocyclopenta[c]pyrrol-4-yl}butanamide] | 1.15 |
